Tested on: normal human epidermal keratinocytes (NHEK)
Assay: Affymetrix gene array analysis, autoantigen gene expression
Format: cell-based
Settings: 100 μM
Protocol: The gene array experiment was performed at the Core Facility of Genomics of the Medical College of Georgia, according to the instructions of the manufacturer (Affymetrix, Santa Clara, Calif.). Briefly, NHEK and OSC2 cells treated with 100 μM EGCG for different time period were extracted for total RNA, the RNA was processed for probes and hybridized with a cDNA microarray (HuG133A, Affymetrix) which represents 22,283 human series. DNA chips were read with a Hewlett-Packard GeneArray Scanner at a resolution of […] and were analyzed with the GeneSpring software (Silicon Genetics, Redwood City, Calif.). Details of this analysis will be published elsewhere (Hsu et al., manuscript in preparation).
Gene assays provide a valuable tool for studying the broad response of cells to agents, and we have used this approach to compare the differential effects of GTPP on gene expression in NHEK and human oral squamous carcinoma cells (Hsu, et al, manuscript in preparation). […] See also Hsu, S. et al. (2005) JPET 315:805-811, which is incorporated by reference in its entirety.

## O=C(O[C@@H]1Cc2c(O)cc(O)cc2O[C@@H]1c1cc(O)c(O)c(O)c1)c1cc(O)c(O)c(O)c1 [EGCG, (−)-epigallocatechin-3-gallate]
6 h
  60 kDa, SS-A/Ro (212852_s_at) expression, normalized: 0.85
  Ku autoantigen, 80 kDa (208642_s_at) expression, normalized: 0.96
  Ku autoantigen, 80 kDa (208643_s_at) expression, normalized: 0.98
  Nuclear antigen SP100 (202863_at) expression, normalized: 0.59
  Nuclear antigen SP100 (202864_s_at) expression, normalized: 0.64
  Nuclear antigen SP10075 kDa (213226_at) expression, normalized: 0.43
  RNA polymerase 1 (202692_s-at) expression, normalized: 0.50
  SS-B/La (201138_s_at) expression, normalized: 0.57
  SS-B/La (201139_s_at) expression, normalized: 0.43
  centromere protein C1 (20473_at) expression, normalized: 0.87
  coilin (203653_s_at) expression, normalized: 0.60
  coilin (203654_s_at) expression, normalized: 0.62
  fodrin-α (208611_s_at) expression, normalized: 0.56
  fodrin-α (215235_s_at) expression, normalized: 0.75
  golgin-67 (208797_s_at) expression, normalized: 0.92
  golgin-67 (208798_x_at) expression, normalized: 0.32
  golgin-67 (210425_x_at) expression, normalized: 0.19
  golgin-67 (213650_at) expression, normalized: 0.69
  scleroderma autoantigen 1, 75 kDa (213226_at) expression, normalized: 0.43
  spectrin-β non-erythrocyctic 1 (212071_s_at) expression, normalized: 0.95
  thyroid autoantigen 70 kDa (Ku antigen) (200792_at) expression, normalized: 1.13
6 h, vs time zero
  ADPRT [poly(ADP)-ribose polymerase] expression: 0.992 fold
  ANAP12 expression: 0.4 fold
  ANXA11 expression: 2.141 fold
  CALR expression: 1.482 fold
  CBARA1 expression: 0.498 fold
  CENPA expression: 0.672 fold
  CENPB expression: 0.498 fold
  CENPC1 expression: 0.869 fold
  CHD4 expression: 0.916 fold
  COL17A1 expression: 1.043 fold
  CTDSP1 expression: 1.25 fold
  CTDSP2 expression: 0.92 fold
  CTDSPL expression: 2.42 fold
  DLAT expression: 1.031 fold
  EPPK1 expression: 1.318 fold
  FBL expression: 1.09 fold
  FLJ31657 expression: 0.435 fold
  FLNB (Filamin B, β) expression: 0.751 fold
  FLNB (Filamin B, γ) expression: 0.875 fold
  G22P1 (Thyroid autoantigen, 70 kDa, Ku antigen) expression: 1.127 fold
  GMEB2 expression: 0.626 fold
  GOLGA1 expression: 0.68 fold
  GOLGA2 expression: 0.769 fold
  GOLGA3 expression: 0.547 fold
  GOLGA4 expression: 0.353 fold
  GOLGA5 expression: 0.731 fold
  GOLGB1 expression: 0.56 fold
  HARS expression: 0.88 fold
  HARSL expression: 0.88 fold
  HSA6591 expression: 0.532 fold
  HUMAUANTIG expression: 0.444 fold
  IMP-2 expression: 0.635 fold
  LAD1 expression: 0.954 fold
  LMO4 expression (repeat 1): 0.708 fold
  LMO4 expression (repeat 2): 1.133 fold
  MGC5560 expression (repeat 1): 1.646 fold
  MGC5560 expression (repeat 2): 2.605 fold
  NS (Nucleostemin) expression: 0.519 fold
  PDHB expression: 0.745 fold
  PDX1 expression: 0.646 fold
  PMSCL1, 75 kDa expression: 0.431 fold
  PMSCL2 expression: 1.058 fold
  POLR1B expression: 0.98 fold
  POLR1D expression: 1.04 fold
  POLR2A expression (repeat 1): 1.80 fold
  POLR2A expression (repeat 2): 0.44 fold
  POLR2B expression: 0.59 fold
  POLR2C expression: 1.53 fold
  POLR2D expression: 1.04 fold
  POLR2E expression: 0.87 fold
  POLR2F expression: 1.17 fold
  POLR2G expression: 0.74 fold
  POLR2H expression: 1.02 fold
  POLR3C expression: 0.45 fold
  POLR3G expression: 1.05 fold
  PSME3 expression: 1.128 fold
  RALY expression: 1.496 fold
  SART1 expression: 1.462 fold
  SLC25A16 expression: 1.099 fold
  SNRP70 expression: 2.28 fold
  SNRPA expression: 1.35 fold
  SNRPB2 expression: 0.56 fold
  SNRPB expression (repeat 1): 0.76 fold
  SNRPB expression (repeat 2): 0.67 fold
  SNRPC expression: 1.28 fold
  SNRPD1 expression (repeat 1): 0.658 fold
  SNRPD1 expression (repeat 2): 0.612 fold
  SOX13 expression: 1.24 fold
  SP100 expression (repeat 1): 0.59 fold
  SP100 expression (repeat 2): 0.686 fold
  SP110 expression (repeat 1): 1.205 fold
  SP110 expression (repeat 2): 0.997 fold
  SP110 expression (repeat 3): 0.7 fold
  SPTAN1 (α-fodrin) expression (repeat 1): 0.56 fold
  SPTAN1 (α-fodrin) expression (repeat 2): 0.75 fold
  SPTBN expression: 0.95 fold
  SSA2 (autoantigen SS-A/Ro) expression (repeat 2): 0.687 fold
  SSA2 expression (repeat 1): 0.739 fold
  SSA2 expression (repeat 3): 0.571 fold
  SSA2 expression (repeat 4): 0.85 fold
  SSB (autoantigen La) expression (repeat 1): 0.57 fold
  SSB (autoantigen La) expression (repeat 2): 0.427 fold
  SSNA1 expression: 1.608 fold
  SSSCA1 expression: 1.005 fold
  STRN3 expression: 0.528 fold
  TOP1 expression (repeat 1): 0.84 fold
  TOP1 expression (repeat 2): 0.33 fold
  UBTF expression: 0.501 fold
  XRCC5 (Ku autoantigen, 80 kDa) expression (repeat 1): 0.977 fold
  XRCC5 (Ku autoantigen, 80 kDa) expression (repeat 2): 0.958 fold
  dJ963E22.1 expression: 0.723 fold
  α-NAC expression: 0.0443 fold
24 h
  60 kDa, SS-A/Ro (210438_x_at) expression, normalized: 0.88
  60 kDa, SS-A/Ro (212852_s_at) expression, normalized: 0.94

Source: US8287923B2, “Compositions and methods for treating immune disorders” (priority 2005, dated 2012)
